# Data as given in US8247211B2, “Glycopeptide antibiotics” (American Cyanamid Company, priority 2001, dated 2012).
# Values joined by “and” are separate entries in the source; they are usually repeats but may differ in a detail not shown here. Identical values can stand only once.
# Columns and labels:
# [1] = format: in vivo; conditions: mice, 20 mg/kg intravenously daily for 9 days, serum on day 10
# Protocol: 20-day-old CD-1 mice were divided into a vehicle control group (5 mice) and a treatment group (5 mice). Samples of glycopeptide antibiotics were administered at 20 mg/kg intravenously daily for 9 days. Animals were necropsied on day 10 Sera were analyzed for BUN (blood urea nitrogen), creatinine, AST (aspartic aminotransferase), and ALT (alanine aminotransferase) by routine, standard, automated methods using an Hitachi 747 chemistry analyzer.
# Streptococcus sp. = experiment: In vitro antibacterial evaluation: minimum inhibitory concentration (MIC), broth dilution method; format: cell-based; conditions: broth dilution, 5×10^5 CFU/mL, 18 hours at 35° C.
# Method in brief: (§1)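 NCCLS M7-A2 broth dilution; Muller-Hinton II […]; 5×10^5 CFU/mL; 64-0.06 μg/mL. MIC = lowest concentration with no growth.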
# Enterococcus sp. = experiment: as above; format: cell-based; conditions: broth dilution, 5×10^5 CFU/mL, 18 hours at 35° C.
# Method in brief: as §1
# Staphylococcus sp. = experiment: as above; format: cell-based; conditions: for MIC Staphylococcus aureus-SMITH (GC 4543): strain GC 4543; for MIC Staphylococcus haemolyticus (GC 4546): strain GC 4546; for MIC Coagulase Negative Staphylococcus (GC 4547): strain GC 4547; for MIC Coagulase Negative Staphylococcus (GC 4548): strain GC 4548; for MIC Coagulase Negative Staphylococcus (GC 4549): strain GC 4549; for MIC Coagulase Negative Staphylococcus (GC 4551): strain GC 4551; for MIC Coagulase Negative Staphylococcus (GC 6257): strain GC 6257
# Method in brief: as §1
# Escherichia coli = experiment: as above; format: cell-based; conditions: 5×10^5 CFU/mL, 18 hours at 35° C.
# Method in brief: as §1
# [2] = tested on: Enterococcus faecalis (GC 6189), vancomycin resistant strain; experiment: Acute lethal infection in mice (ED50); format: in vivo; conditions: female CD-1 mice, intraperitoneal challenge, intravenous dose 30 min. after infection, 7 day survival ratios
# Method in brief: (§2)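 Female CD-1 mice (20 ± 1-2 g) were infected intraperitoneally with enough bacteria, suspended in Trypticase Soy Broth or hog gastric mucin, to kill untreated controls within 24-48 hr. Compound in saline or 5% dextrose was given intravenously 30 min after infection. ED50 came from pooled 7-day survival over 3 tests.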
# [3] = tested on: Staphylococcus aureus-SMITH (GC 4543); experiment: Acute lethal infection in mice (ED50); format: in vivo; conditions: female CD-1 mice, intraperitoneal challenge, intravenous dose 30 min. after infection, 7 day survival ratios
# Method in brief: as §2
# [4] = Anatomic pathology (heart and kidney histopathology) in mice; format: in vivo, CD-1 mice; conditions: 20 mg/kg intravenously daily for 9 days, microscopic histopathology on day 10
# Method in brief: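 Juvenile CD-1 mice (20 days old; 5 vehicle, 5 treated) received glycopeptide antibiotic 20 mg/kg i.v. daily for 9 days. Necropsied tissues formalin-fixed, paraffin-embedded, H&E stained and examined microscopically; findings graded slight to severe versus controls.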
# Staphylococcus aureus = experiment: Zone of inhibition, assay plate Staphylococcus aureus; format: cell-based; conditions: 25 μl of extract per 5 mm well, Nutrient Agar pH 6.8, incubated overnight at 37° C.
# Protocol: Inoculate 10 mL of Tryptic Soy Broth with a loopful of slant culture, Staphylococcus aureus, and place in a stationary rack at 37° C. After 16-18 hour incubation, the Optical Density (OD) of the culture is read @ A600 nm, using a 1:10 dilution. OD should be between 0.1-0.3, and if not adjust with Tryptic Soy Broth. A 40 mL sample of Nutrient Agar, pH 6.8 is inoculated with 90 μl of S. aureus culture and poured into a sterile petri dish. When the agar has solidified, wells (5 mm) are plated using an automated welling device. Wells are inoculated with 25 μl of extract and incubated overnight at 37° C. Zones of inhibition are measured and recorded the following morning.
# [5] = broth dilution, 18 hours at 35° C.
structure (smiles),measurement,setting,value
"CC(c1ccccc1)C1NC(=O)CNC(=O)C(CO)NC(=O)C(C(O)C2CNC(=N)N2C2OC(CO)C(O)C(O)C2O)NC(=O)C(C(O)C2CNC(=N)N2)NC(=O)C(Cc2ccc(OC3OC(CO)C(OC4OC5COC(Cc6ccccc6)OC5C(O)C4O)C(O)C3O)cc2)NC1=O (stereo not drawn) [Example 102, Cyclo[glycyl-β-methylphenylalanyl-O-[4-O-(4,6-O-phenethylidenehexopyranosyl)-hexopyranosyl]tyrosyl-3-(2-iminoimidazoliclin-4-yl)seryl-3-(3-hexopyranosyl-2-iminoimidazolidin-4-yl)serylseryl]]","Clinical Chemistry (Day 10) % of Control, AST",[1],+340%
same,"Clinical Chemistry (Day 10) % of Control, Creatinine",[1],+100%
same,MIC Streptococcus pneumoniae (GC 1894),Streptococcus sp.,<0.06 µg/mL
same,MIC Streptococcus pneumonine (ATCC 6301),Streptococcus sp.,<0.06 µg/mL
same,MIC Enterococccus avium (GC 4558),Enterococcus sp.,2 to 4 µg/mL
same,MIC Enterococccus faecalis (ATCC 29212),Enterococcus sp.,2 to 4 µg/mL
same,MIC Enterococccus faecalis (GC 2691),Enterococcus sp.,2 to 4 µg/mL
same,MIC Enterococccus faecalis (GC 3059),Enterococcus sp.,2 to 4 µg/mL
same,MIC Enterococccus faecalis (GC 4552),Enterococcus sp.,2 to 4 µg/mL
same,MIC Enterococccus faecalis (GC 4553),Enterococcus sp.,2 to 4 µg/mL
same,MIC Enterococccus faecalis (GC 4554),Enterococcus sp.,2 to 4 µg/mL
same,MIC Enterococccus faecalis (GC 6189),Enterococcus sp.,2 to 4 µg/mL
same,MIC Enterococccus faecium (GC 2243),Enterococcus sp.,2 to 4 µg/mL
same,MIC Enterococccus faecium (GC 4556),Enterococcus sp.,2 to 4 µg/mL
same,MIC Enterococccus faecium (GC 4557),Enterococcus sp.,1 to 2 µg/mL
same,MIC Enterococcus faecalis (GC 2242),Enterococcus sp.,2 to 4 µg/mL
same,MIC Staphylococcus aureus (ATCC 29213),Staphylococcus sp.; strain ATCC 29213,1 to 2 µg/mL
same,MIC Staphylococcus aureus (GC 1131),Staphylococcus sp.; strain GC 1131,2 µg/mL
same,MIC Staphylococcus aureus (GC 3051),Staphylococcus sp.; strain GC 3051,1 µg/mL
same,MIC Staphylococcus aureus (GC 3053),Staphylococcus sp.; strain GC 3053,1 to 2 µg/mL
same,MIC Staphylococcus aureus (GC 4541),Staphylococcus sp.; strain GC 4541,1 to 2 µg/mL
same,MIC Staphylococcus aureus (GC 4542),Staphylococcus sp.; strain GC 4542,0.5 to 1 µg/mL
same,MIC Staphylococcus aureus-SMITH (GC 4543),Staphylococcus sp.; 18 hours at 35° C.,0.5 to 1 µg/mL
same,MIC Staphylococcus aureus-SMITH (GC 4543),Staphylococcus sp.; [5],0.5 to 1 µg/mL
same,MIC Staphylococcus aureus (GC 4544),Staphylococcus sp.; strain GC 4544,1 to 2 µg/mL
same,MIC Staphylococcus aureus (GC 4545),Staphylococcus sp.; strain GC 4545,0.5 to 1 µg/mL
same,MIC Staphylococcus haemolyticus (GC 4546),Staphylococcus sp.,0.5 to 1 µg/mL
same,MIC Staphylococcus haemolyticus (GC 4546),Staphylococcus sp.; [5],0.5 to 1 µg/mL
same,MIC Coagulase Negative Staphylococcus (GC 4547),Staphylococcus sp.,1 µg/mL
same,MIC Coagulase Negative Staphylococcus (GC 4547),Staphylococcus sp.; [5],1 µg/mL
same,MIC Coagulase Negative Staphylococcus (GC 4548),Staphylococcus sp.,0.5 to 1 µg/mL
same,MIC Coagulase Negative Staphylococcus (GC 4548),Staphylococcus sp.; [5],0.5 to 1 µg/mL
same,MIC Coagulase Negative Staphylococcus (GC 4549),Staphylococcus sp.,0.5 to 1 µg/mL
same,MIC Coagulase Negative Staphylococcus (GC 4549),Staphylococcus sp.; [5],0.5 to 1 µg/mL
same,MIC Coagulase Negative Staphylococcus (GC 4551),Staphylococcus sp.,1 to 2 µg/mL
same,MIC Coagulase Negative Staphylococcus (GC 4551),Staphylococcus sp.; [5],1 to 2 µg/mL
same,MIC Coagulase Negative Staphylococcus (GC 6257),Staphylococcus sp.,0.5 µg/mL
same,MIC Coagulase Negative Staphylococcus (GC 6257),Staphylococcus sp.; [5],0.5 µg/mL
same,MIC Escherichia coli (GC 4560),Escherichia coli,0.5 to 1 µg/mL
same,"median effective dose (ED50), Enterococcus faecalis (GC 6189)",[2],1.04 mg/kg
same,"median effective dose (ED50), Staphylococcus aureus-SMITH (GC 4543)",[3],0.23-0.43
same,"Anatomical Pathology (Day 10), Heart",[4],+++
same,"Anatomical Pathology (Day 10), Kidney",[4],+++
"CC(C)CCC(=O)OC1C(CO)OC(OC2C(CO)OC(Oc3ccc(CC4NC(=O)C(C(C)c5ccccc5)NC(=O)CNC(=O)C(CO)NC(=O)C(C(O)C5CNC(=N)N5C5OC(CO)C(O)C(O)C5O)NC(=O)C(C(O)C5CNC(=N)N5)NC4=O)cc3)C(O)C2O)C(O)C1O (stereo not drawn) [Example 270c, Cyclo[glycyl-β-methylphenylalanyl-O-[4-O-[4-O-(4-methylpentanoyl)hexopyranosyl]-hexopyranosyl]tyrosyl-3-(2-iminoimidazolidin-4-yl)seryl-3-(3-hexopyranosyl-2-iminoimidazolidin-4-yl)serylseryl]]",Zone of Inhibition vs. S. aureus,Staphylococcus aureus,11 mm
"CCC(C)CC(=O)OC1C(CO)OC(OC2C(CO)OC(Oc3ccc(CC4NC(=O)C(C(C)c5ccccc5)NC(=O)CNC(=O)C(CO)NC(=O)C(C(O)C5CNC(=N)N5C5OC(CO)C(O)C(O)C5O)NC(=O)C(C(O)C5CNC(=N)N5)NC4=O)cc3)C(O)C2O)C(O)C1O (stereo not drawn) [Example 271c, Cyclo[glycyl-β-methylphenylalanyl-O-[4-O-[4-O-(3-methylpentanoyl)hexopyranosyl]-hexopyranosyl]tyrosyl-3-(2-iminoimidazolidin-4-yl)seryl-3-(3-hexopyranosyl-2-iminoimidazolidin-4-yl)serylseryl]]",Zone of Inhibition vs. S. aureus,Staphylococcus aureus,12 mm
"CCCC(=O)OC1C(O)C(CO)OC(OC2C(CO)OC(Oc3ccc(CC4NC(=O)C(C(C)c5ccccc5)NC(=O)CNC(=O)C(CO)NC(=O)C(C(O)C5CNC(=N)N5C5OC(CO)C(O)C(O)C5O)NC(=O)C(C(O)C5CNC(=N)N5)NC4=O)cc3)C(O)C2O)C1O (stereo not drawn) [Example 272b, Cyclo[glycyl-β-methylphenylalanyl-O-[4-O-(3-O-butanoyl-hexopyranosyl)-hexopyranosyl]tyrosyl-3-(2-iminoimidazolidin-4-yl)seryl-3-(3-hexopyranosyl-2-iminoimidazolidin-4-yl)serylseryl]]",Zone of Inhibition vs. S. aureus,Staphylococcus aureus,8 mm
CCCCCC(=O)OC1C(O)C(CO)OC(OC2C(CO)OC(Oc3ccc(CC4NC(=O)C(C(C)c5ccccc5)NC(=O)CNC(=O)C(CO)NC(=O)C(C(O)C5CNC(=N)N5C5OC(CO)C(O)C(O)C5O)NC(=O)C(C(O)C5CNC(=N)N5)NC4=O)cc3)C(O)C2O)C1O (stereo not shown) [Example 273b],Zone of Inhibition vs. S. aureus,Staphylococcus aureus,9 mm and 8 mm
"CCCCCCC(=O)OC1C(OC2C(CO)OC(Oc3ccc(CC4NC(=O)C(C(C)c5ccccc5)NC(=O)CNC(=O)C(CO)NC(=O)C(C(O)C5CNC(=N)N5C5OC(CO)C(O)C(O)C5O)NC(=O)C(C(O)C5CNC(=N)N5)NC4=O)cc3)C(O)C2O)OC(CO)C(O)C1O (stereo not drawn) [Example 274a, Cyclo[glycyl-β-methylphenylalanyl-O-[4-O-(2-O-heptanoyl-hexopyranosyl)-hexopyranosyl]tyrosyl-3-(2-iminoimidazolidin-4-yl)seryl-3-(3-hexopyranosyl-2-iminoimidazolidin-4-yl)serylseryl]]",Zone of Inhibition vs. S. aureus,Staphylococcus aureus,9 mm
"CCCCCCC(=O)OC1C(O)C(CO)OC(OC2C(CO)OC(Oc3ccc(CC4NC(=O)C(C(C)c5ccccc5)NC(=O)CNC(=O)C(CO)NC(=O)C(C(O)C5CNC(=N)N5C5OC(CO)C(O)C(O)C5O)NC(=O)C(C(O)C5CNC(=N)N5)NC4=O)cc3)C(O)C2O)C1O (stereo not drawn) [Example 274b, Cyclo[glycyl-β-methylphenylalanyl-O-[4-O-(3-O-heptanoyl-hexopyranosyl)-hexopyranosyl]tyrosyl-3-(2-iminoimidazolidin-4-yl)seryl-3-(3-hexopyranosyl-2-iminoimidazolidin-4-yl)serylseryl]]",Zone of Inhibition vs. S. aureus,Staphylococcus aureus,10 mm
